Experimental data taken from patent US11028061B2, “Modulators of myocyte lipid accumulation and insulin resistance and methods of use thereof” (Sanford Burnham Prebys Medical Discovery Institute, priority 2015, dated 2021).

How the values were obtained:
[1] = tested on: ARRDC4; assay: ARRDC4 expression by quantitative RT-PCR in human myotubes; format: cell-based; conditions: 24 hours
Method: FIGS. 4A-C show downregulation of TXNIP and ARRDC4 expression by SBI-477. (FIG. 4A) TXNIP and ARRDC4 mRNA levels as determined by quantitative RT-PCR in human myotubes treated with SBI-477 (10 μM) or DGAT1 inhibitor (DGATi, […]) for 24 hours in the absence or presence of 100 μM oleate (n=4). Expression is shown relative to vehicle/BSA treatment. (FIG. 4B) TXNIP gene expression following exposure to a dose range of SBI-477 for 24 hours (n=4). (FIG. 4C) Left, Effect of SBI-477 on TXNIP protein levels as determined by western blot analysis by SBI-477. Right, Quantitation of the TXNIP western blot data is shown (n=5). *p<0.05 vs. Vehicle/BSA control, †p<0.05 vs. Vehicle/oleate by one-way ANOVA with Bonferroni post hoc test. The data are shown as mean±SD.
Total RNA was isolated using RNeasy Mini Kit (Qiagen) according to the manufacturer's instructions. cDNA was synthesized using the Affinity Script cDNA Synthesis Kit (Stratagene) with 0.5 μg of total RNA. PCR reactions were performed in triplicate […] Roche LightCycler® 480 Instrument II) with specific primers for each gene.

[2] = target: T1, MondoA (Homo sapiens, UniProt Q9HAP2); assay: Intracellular localization of MondoA (immunolocalization); format: cell-based; conditions: human skeletal myoblasts; data not shown
T1 construct: endogenous in cells; host or cells: human skeletal myoblasts
T1 sequence (Q9HAP2 whole entry): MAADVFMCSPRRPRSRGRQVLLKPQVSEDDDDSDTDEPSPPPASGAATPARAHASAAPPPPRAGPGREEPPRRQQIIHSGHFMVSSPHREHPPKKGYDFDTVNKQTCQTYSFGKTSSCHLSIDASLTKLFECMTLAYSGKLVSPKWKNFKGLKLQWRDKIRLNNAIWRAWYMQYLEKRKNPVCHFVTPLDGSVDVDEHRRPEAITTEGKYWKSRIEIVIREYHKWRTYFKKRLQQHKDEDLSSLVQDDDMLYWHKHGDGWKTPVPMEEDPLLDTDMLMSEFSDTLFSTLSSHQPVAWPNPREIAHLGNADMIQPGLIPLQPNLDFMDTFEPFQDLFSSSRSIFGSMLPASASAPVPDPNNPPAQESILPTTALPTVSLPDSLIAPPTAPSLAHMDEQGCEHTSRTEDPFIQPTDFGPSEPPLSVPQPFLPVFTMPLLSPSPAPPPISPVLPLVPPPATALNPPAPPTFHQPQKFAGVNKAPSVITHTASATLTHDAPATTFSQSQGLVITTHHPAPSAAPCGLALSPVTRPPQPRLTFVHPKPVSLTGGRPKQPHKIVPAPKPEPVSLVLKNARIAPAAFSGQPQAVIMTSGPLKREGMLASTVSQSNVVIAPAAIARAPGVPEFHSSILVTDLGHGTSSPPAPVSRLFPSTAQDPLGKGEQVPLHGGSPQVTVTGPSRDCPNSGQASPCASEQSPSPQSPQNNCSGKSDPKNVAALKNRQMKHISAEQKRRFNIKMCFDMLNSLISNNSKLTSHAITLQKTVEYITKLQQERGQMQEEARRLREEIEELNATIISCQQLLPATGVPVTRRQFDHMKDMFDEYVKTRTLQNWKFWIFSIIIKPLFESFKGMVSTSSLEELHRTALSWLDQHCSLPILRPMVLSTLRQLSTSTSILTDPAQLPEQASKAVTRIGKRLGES
Method: The activity of ChREBP and MondoA is governed, in part, by nuclear-cytoplasmic shuttling mechanisms that are incompletely understood but likely involve glucose metabolites and phosphorylation (Stoltzman, et al., Proc Natl Acad Sci USA. 2008; 105(19):6912-6917; Filhoulaud, et al., Trends Endocrinol Metab. 2013; 24(5):257-268). Accordingly, the effect of SBI-477 on intracellular localization of MondoA was assessed. […] The results of immunoblotting studies conducted with fractionated cellular extracts further supported this conclusion (FIG. 5D).

[3] = tested on: insulin receptor substrate 1 (IRS-1); assay: Western blot of IRS-1 phosphorylation; format: cell-based, human; conditions: 24 hours
Method: FIGS. 3A, B, C, E and F show SBI-477 stimulation of glucose uptake and activates insulin signaling in the absence of insulin. Human skeletal myotubes were incubated with SBI-477 at the indicated concentration for 24 hours and then treated with or without insulin (100 nM) for 30 minutes. Glucose ([3H]-2-deoxyglucose, 2-DG) uptake (FIG. 3A) and glycogen synthesis rates (FIGS. 3B and 3C) were measured (n=5) as described in Methods. *p<0.05 vs. Vehicle, no insulin, †p<0.05 vs. Vehicle/insulin by two-way ANOVA with Tukey's post hoc test. (FIG. 3E) Western blot analysis of human myotubes treated with SBI-477 for 24 hours was performed to determine the effect on steps of the insulin signaling pathway using specific Akt and IRS-1 phosphorylation sites as endpoints. Insulin treatment (100 nM) for 30 minutes was used as positive control. (FIG. 3F) Quantitation of the western blot data in […] is shown (n=5). *p<0.05 or **p<0.01 vs. Vehicle by one-way ANOVA with Bonferroni post hoc test. The data represent mean±SD.
Cells were lysed in the RIPA buffer containing 1% NP-40, 5 mM Na4P2O7, 1 mM EDTA, 20 mM NaF, 2 mM Na3VO4, 1× cOmplete™ protease inhibitor (Roche) and 1 mM phenylmethylsulfonyl fluoride. […] Protein quantification was performed using FluorChemQ (Alpha Innotech) and normalized to […]-actin or total protein where indicated.

[4] = tested on: primary human myotubes; assay: Fatty acid uptake (3H-oleate); format: cell-based; conditions: 10 μM, 24 hours
Method: FIGS. 1A-1C show SBI-477 as a small molecule inhibitor of neutral lipid accumulation in human skeletal myotubes. […] Data is shown as percent of DMSO vehicle control. Representative of >5 experiments. FIGS. 1B and 1C show dose-dependent inhibition of myocyte TAG accumulation by SBI-477. FIG. 1B—primary human myotubes were incubated with the indicated concentrations of SBI-477, 1 μM triascin C, 1 μM A922500 (DGAT inhibitor) or vehicle control with 100 μM oleate for 24 hours. Fatty acid free bovine serum albumin (BSA) was included as non-lipid loading control. Bars represent mean triglyceride level normalized to total protein±SD. *p<0.001 vs. oleate/vehicle control by one-way ANOVA with Bonferroni post hoc test. FIG. 1C—primary human myotubes were incubated with 10 μM SBI-477 or vehicle control for 24 hours. Fatty acid (FA) uptake was measured as cellular uptake of 3H-oleate. Bars represent fatty acid uptake normalized to the vehicle control. FIGS. 1D-1F show the effect of SBI-477 on FAO rates in human skeletal myotubes. […] FAO rates were determined by 3H-palmitate oxidation (n=5). […] Total cellular triglyceride levels were determined following incubation with SBI-477 (10 μM) for 24 hours with etomoxir (50 μM) in the absence (FIG. 1E) or presence of 1 mM carnitine (FIG. 1F) (n=4). *p<0.05 vs. vehicle control.

COc1ccc(-c2csc(NC(=O)c3ccc(OCC(=O)N4CCOCC4)c(OC)c3)n2)cc1 [Cpd. 7, 3-methoxy-N-(4-(4-methoxyphenyl)thiazol-2-yl)-4-(2-morpholino-2-oxoethoxy)benzamide]
ARRDC4 expression [1]: robust, dose-dependent downregulation | Nuclear localization of MondoA [2]: near complete nuclear exclusion of MondoA | IRS-1 phosphorylation at serine sites 636/639 [3]: decreased | Tyrosine phosphorylation of IRS-1 ([3]; absence of insulin): increased | Cellular fatty acid uptake [4]: not due to blocking cellular fatty acid uptake
